Results on six compounds are retold here after patent US20020103127A1, “Inhibitors of proteasomal activity for stimulating hair growth” (priority 1998, published 2002).

The test system of test [1] is hair follicles. As to the kind of experiment: Topical dose response of PSI (dose requirements). The class given is in vivo, mice. The procedure: In order to determine the minimal effective dosage of PSI, when used topically, a dose response curve for PSI was prepared. All experiments were preformed according to current good laboratory practice regulations (21CFR58). The mice were divided into 7 groups, 10 mice each, wherein one group was control treated only with vehicle and groups 1-6 with a series of increasing concentrations of PSI in a vehicle comprising 50% propylene glycol, 30% ethanol, 20% deionized water. The concentrations were 0.006%, 0.012%, 0.025%, 0.05%, 0.11% and 0.5%.
The mice were anesthetized (50 μl Mouse Cocktail containing 3 ml ketamine, 2 ml small animal rompum, 5 ml NaCl), identified by ear punch code, weighed and the hair on the dorsal side removed by waxing as described in Example 6. After waxing, the animals were photographed. On the following day (day 1), 100 μl of PSI at the above concentrations in vehicle was brushed onto the area of removed hair. […]
On Day 7 mice were anesthetized and a biopsy of the dorsal treatment area taken using a 6 mm dermal punch; the specimens were fixed in 10% buffered formalin and embedded in paraffin wax. Sections were cut using a standard microtome.
Mice were monitored daily for signs of hair growth, and any hair growth was recorded by photography. On day 21 animals were euthanized (75 mg/kg body weight phenobarbital, IP injection), 2 cm hair samples were taken for optical based fiber analysis, and the remaining dorsal treatment area was fixed in 10% buffered formalin for further histological analysis. Analysis included quantification of hair thickness and quantification of mature hair follicles. Results were expressed as the mean =+/− the standard error of the mean. Data were analyzed by repeated measures of analysis of variance followed by the Tukey-Kramer post test P values of <0.05 were considered significant.

The test system of test [2] is hair follicles. Briefly: Modified in vivo calvarial assay: number of hair follicles after injection over the calvaria. Also on record: species or system Swiss ICR mice. The note with it: for number of hair follicles: administered in the same way as PSI (injection over the calvaria). The procedure:
Male ICR Swiss white mice, aged 4-6 weeks and weighing 13-26 gm, are employed, using 4-5 mice per group. The calvarial bone growth assay is performed as described in PCT application WO95/242 11, incorporated by reference. Briefly, the test compound or appropriate control vehicle is injected into the subcutaneous tissue over the right calvaria of normal mice. Typically, the control vehicle is the vehicle in which the compound was solubilized, and is PBS containing 5% DMSO or is PBS containing Tween (2 μl/10 ml). The animals are sacrificed on day 14 and bone growth measured by histomorphometry. Bone samples for quantitation are cleaned from adjacent tissues and fixed in 10% buffered formalin for 24-48 hours, decalcified in 14% EDTA for 1-3 weeks, processed through graded alcohols; and embedded in paraffin wax. Three to five μm sections of the calvaria are prepared, and representative sections are selected for histomorphometric assessment of the effects on bone formation and bone resorption. Sections are measured by using a camera lucida attachment to trace directly the microscopic image onto a digitizing plate. Bone changes are measured on sections cut 200 μm apart, over 4 adjacent 1×1 mm fields on both the injected and noninjected sides of the calvaria. New bone is identified by its characteristic woven structure, and osteoclasts and osteoblasts are identified by their distinctive morphology. Histomorphometry software (OsteoMeasure, Osteometrix, Inc., Atlanta) is used to process digitizer input to determine cell counts and measure areas or perimeters.
(§1) The assay described above to assess the effect of compounds on calvarial bone growth can also be used to assess the ability of compounds to stimulate hair growth. The test compound or appropriate control vehicle is applied to the upper and lower back of male ICR Swiss white mice either topically or by subcutaneous injection. The vehicle is selected as appropriate for the compound to be tested and for the route of administration. Optionally, the hair in the test area may be removed prior to administration. After a suitable interval, typically 7 days, the mice are anesthetized and a biopsy of the dorsal treatment area is taken using a 6 mm dermal punch. The specimens are fixed in 10% buffered formalin and imbedded in paraffin wax, and sectioned and stained to observe hair follicles. In addition, photography can be used to observe and record hair growth; typically such growth is observed after 14-18 days. After a suitable interval, typically 21 days, the animals may be euthanized and the hair analyzed for fiber analysis and the tissue from the treatment area analyzed for quantitation of hair follicles.
The in vivo bone calvarial growth assay of Example 3 was modified to observe the number of hair follicles in treated mice. […]

Test [3] deals with hair follicles. As to the kind of experiment: Topical administration of PSI solution, hair growth. The class given is in vivo, mice. The method, then:
PSI was prepared as a topical formulation, where the vehicle was 50% propylene glycol, 30% ethanol, 20% deionized water, at 0.1% concentration of PSI. The solution was applied 3 times a day for 5 days. The mice in a treated group were observed as compared to controls similarly treated with vehicle alone.
When the protocol above was repeated using a 0.5% solution of PSI in groups containing 5 mice each, the number of hairs per 0.8 mm^2 was 60 in the treated mice versus about 10 in the control group. The percentage of follicle area in a region of about 0.8 mm^2 was about 30% as an average in the treated group as compared to 15% as an average in the control group.

Test [4] relates to hair follicles. Briefly: Stimulation of hair growth: subcutaneous injection into scalp and dorsal region after wax hair stripping. The class given is in vivo, Male Swiss ICR mice. The note with it: 1 mg/kg/day s.c. three times a day for five days.
From the text: as §1
Male Swiss ICR mice were first treated to remove hair from the scalp and dorsal regions as follows. Paraffin wax was liquefied by heating to 55° C. and the liquefied wax then applied by brush to the scalp and/or back (under anesthesia). The wax was allowed to solidify and then removed. The day following hair stripping, PSI (1 mg/kg/day) was injected subcutaneously three times a day for five days into the scalp and dorsal region.
The mice were sacrificed on day 21 and histology was performed on the dermis of the scalp and of the dorsal region. […] Upon closer examination, it was observed that mice that had received only vehicle had quiescent hair follicles.

Test [5] relates to calvarial bone. Briefly: in vitro calvarial assay. Format: cell-based.
For test [6] the following is noted: compared with proteasome inhibitors such as MG-132.
[7] abbreviates: topical 0.5% solution of PSI, 3 times a day for 5 days, groups of 5 mice.

Where a SMILES comes first, the peptide text is derived from it. [ ]: non-standard residue; d: D form. The star is where a group is joined. Nva = CCC[C@H](N)C(=O)O; Cbz = O=C(OCc1ccccc1)*; OtBu = CC(C)(C)O*

On to `CC[C@H](C)[C@H](NC(=O)OCc1ccccc1)C(=O)N[C@@H](CCC(=O)OC(C)(C)C)C(=O)N[C@@H](C)C(=O)N[C@H](C=O)CC(C)C` [PSI, N-carbobenzoyl-Ile-Glu-(OtBu)-Ala-Leu-CHO] (Cbz-IE(OtBu)AL-aldehyde), for which the “efficacy on hair growth (additional experiments)” value in test [1] (0.1% applied topically 3 times a day for 5 days) was “also effective”. Moreover, the “gross observation of hair growth” value in test [1] (mice receiving an effective topical dose) was “an enhanced rate of hair growth, a thickening of hair diameter, increase in sheath diameter, and differentiation of quiescent hair follicles into more mature forms”. For the same compound, the “minimal effective dose (topical concentration)” value in test [1] (topical, applied 1 time a day for 4 days, 100 μl in 50% propylene glycol, 30% ethanol, 20% water) is on record as 0.5%. The “number of hair follicles (histology of the calvaria) versus control mice” value in test [2] (5mg/kg/day injected three times a day for 5 days over the calvaria, sacrificed sixteen days later) is listed as “strikingly large increase in the number of hair follicles”. Further, the “hair growth relative to vehicle controls” value in test [3] (topical 0.1% PSI in 50% propylene glycol, 30% ethanol, 20% water, 3 times a day for 5 days, day 16) is listed as “stimulation of hair growth relative to the controls”. Besides, in test [3] (setting [7]), the “number of hairs per 0.8 mm^2” value turned out to be 60 per 0.8 mm^2 and the “percentage of follicle area in a region of about 0.8 mm^2 (average)” value is given as “about 30%”. In addition, in test [3] (topical PSI), the “thickness of hair and hair shaft” value is “able to thicken both the hair and the hair shaft”. The hair count entry in test [3] (topical PSI, follicle area greater than 0.01 mm^2) is on record as “increases hair count”. In addition, in test [4] (by day 18), the “hair growth rate versus control group” value is given as “hair growth rate greater than that of the mice in the control group”. The “number of hair follicles (dermal punch biopsy histology) versus control mice” value in test [4] (day 7) was “large increase in the number of hair follicles”. Further, in test [4] (day 21), the “effect on quiescent hair follicles (histology)” value is “stimulated to differentiate into mature hair follicles and to migrate to the lower region of the dermis”; the “mature hair follicles in dermis of scalp and dorsal region (histology)” value was “mature hair follicles in numbers much greater than in controls had migrated to the lower region of the dermis”.
Take `CCC[C@@H](C=O)NC(=O)[C@H](CC(C)C)NC(=O)[C@H](CC(C)C)NC(=O)OCc1ccccc1` [MG115, N-carbobenzoyl-Leu-Leu-Nva-CHO] (Cbz-Leu-Leu-[Nva]-aldehyde): in test [2] (10 mg/kg), the “number of hair follicles” value is on record as “stimulated an increase in the number of hair follicles”.
Turning to `CC(=O)CCCCn1c(=O)c2c(ncn2C)n(C)c1=O` [pentoxyfilline], the “activity in the in vitro calvarial assay” value in test [5] is given as “active”.
Take `CC(=O)N[C@@H](CSC(=O)[C@]1([C@@H](O)C(C)C)NC(=O)[C@H](C)[C@@H]1O)C(=O)O` [lactacysin, lactacystin]: the “number of hair follicles” value in test [2] (dose not given) is reported as “stimulated an increase in the number of hair follicles”.
`C=C(C)[C@]12C[C@@H](C)[C@@]34O[C@](Cc5ccccc5)(O[C@@H]1[C@@H]3C=C(COC(=O)Cc1ccc(O)c(OC)c1)C[C@]1(O)C(=O)C(C)=C[C@@H]41)O2` [resiniferatoxin]: the “activity in the ABA assay” value in test [6] is reported as “less active”.
`CC(C)C[C@@H](C=O)NC(=O)[C@H](CC(C)C)NC(=O)[C@H](CC(C)C)NC(=O)OCc1ccccc1` [MG132, N-carbobenzoyl-Leu-Leu-Leu-CHO] (Cbz-Leu-Leu-Leu-aldehyde): the “number of hair follicles” value in test [2] (10 mg/kg) is reported as “stimulated an increase in the number of hair follicles”.
